Each compound was assayed against T1, HK1 (Homo sapiens, UniProt P19367) (assay: direct labeling of recombinantly expressed proteins by gel-based ABPP (WT vs lysine mutant)). Conditions: HK1 K510, KR mutant; 10 μM probe, 1 h.
T1 construct: Flag; expressed in transfected cells; host or cells: HEK 293T
T1 sequence (P19367 1-917): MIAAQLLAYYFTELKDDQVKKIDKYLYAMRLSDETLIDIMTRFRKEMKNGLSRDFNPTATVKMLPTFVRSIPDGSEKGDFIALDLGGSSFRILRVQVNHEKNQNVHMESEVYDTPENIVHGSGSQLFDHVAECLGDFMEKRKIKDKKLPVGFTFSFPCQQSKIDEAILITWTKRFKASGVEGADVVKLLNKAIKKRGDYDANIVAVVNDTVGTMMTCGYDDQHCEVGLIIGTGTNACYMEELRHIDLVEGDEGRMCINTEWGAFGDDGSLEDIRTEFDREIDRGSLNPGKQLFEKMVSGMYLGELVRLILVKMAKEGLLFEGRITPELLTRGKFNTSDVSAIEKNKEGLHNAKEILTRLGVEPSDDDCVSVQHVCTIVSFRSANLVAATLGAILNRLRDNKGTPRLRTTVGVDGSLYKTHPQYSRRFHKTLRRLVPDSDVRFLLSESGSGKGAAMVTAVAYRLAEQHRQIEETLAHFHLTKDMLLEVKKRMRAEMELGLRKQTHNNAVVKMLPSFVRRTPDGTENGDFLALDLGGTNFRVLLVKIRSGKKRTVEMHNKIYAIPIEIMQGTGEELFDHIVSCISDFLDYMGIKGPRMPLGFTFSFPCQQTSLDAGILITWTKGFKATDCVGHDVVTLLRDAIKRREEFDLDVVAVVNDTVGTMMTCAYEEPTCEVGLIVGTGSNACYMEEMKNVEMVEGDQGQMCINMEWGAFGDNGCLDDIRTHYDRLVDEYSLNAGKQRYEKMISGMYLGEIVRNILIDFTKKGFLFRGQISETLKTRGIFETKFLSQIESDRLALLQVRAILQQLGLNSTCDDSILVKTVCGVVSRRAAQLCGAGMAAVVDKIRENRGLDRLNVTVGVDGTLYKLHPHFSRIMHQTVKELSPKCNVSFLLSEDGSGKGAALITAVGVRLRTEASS
Assay type: binding
`C#CCCC(=O)Oc1c(F)c(F)c(F)c(F)c1F` [probe 6, Pentafluorophenyl 4-pentynoate] was tested, and the “labeling of WT vs mutant protein by probe” value was “HD (the WT labeled more than the mutant (>4x difference quantified))”.
In the case of `C#Cc1ccc(C(=O)Oc2c(F)c(F)c(F)c(F)c2F)cc1` [probe 13, Pentafluorophenyl 4-ethynylbenzoate], the “labeling of WT vs mutant protein by probe” value is reported as “ND (the WT did not label more than the mutant (<2x difference quantified))”.
In the case of `Cc1cc(C)n2c1C=C1C=CC(CCC(=O)Oc3c(F)c(F)c(S(=O)(=O)[O-])c(F)c3F)=[N+]1[B-]2(F)F.[Na+]` [probe 18, reference compound], the “labeling of WT vs mutant protein by probe” value is reported as “ND (the WT did not label more than the mutant (<2x difference quantified))”.
With `C#Cc1ccc(C(=O)Oc2c(F)c(F)cc(F)c2F)cc1` [probe 12, 2,3,5,6-Tetrafluorophenyl 4-ethynylbenzoate] the “labeling of WT vs mutant protein by probe” value was “ND (the WT did not label more than the mutant (<2x difference quantified))”.
In the case of `C#CCCC(=O)Oc1c(F)c(F)c(S(=O)(=O)[O-])c(F)c1F.[Na+]` [probe 1, reference compound], the “labeling of WT vs mutant protein by probe” value is reported as “PD (the WT labeled more than the mutant (>2x difference quantified))”.

— patent US20210255193A1, “LYSINE REACTIVE PROBES AND USES THEREOF” (The Scripps Research Institute, priority 2017, published 2021)
